Test results from patent US9682140B2, “Ezrin-derived peptides and pharmaceutical compositions thereof” (priority 2016, dated 2017).

Assays:
[1] = test system: encephalomyocarditis virus; assay: Antiviral (interferon-inducing) activity in culture of PLC/PRF/5 (Alexander) human hepatoma cell line; type: cell-based, encephalomyocarditis virus strain Columbia SK-Col-SK; details: for Antiviral efficacy (minimal compound concentration protecting 50% of the cells from death) / Titre of induced interferon (inverse to the maximal dilution protecting 50% of the cells): PLC/PRF/5 (Alexander) human hepatoma cells, 100 LD50 of encephalomyocarditis virus
Description: (§1) In this methodology in vitro, we pretreated different types of cells with the studied peptides, and then the cells were infected with a dose of 100 LD50 of encephalomyocarditis virus. 24 hours after the infection the cytopathic effect of the virus was assessed in order to evaluate protective activity of the tested compound if the latter has the ability to bring the cells to a state, resistant to the virus, which is deadly for cells.
(§2) The lower is the concentration which protects 50% of cells from death due to the infection at a dose of 100 LD50 of encephalomyocarditis virus, the higher is antiviral (interferon-inducing) activity of the tested compound.
PLC/PRF/5 (Alexander) human hepatoma cell line was obtained from Research Institute of Virology named after Ivanovskiy (Moscow). Complete medium for cells culturing was prepared on the basis of MEM Eagle medium supplemented with 10% fetal calf serum (FCS), L-glutamine (300 μg/ml), and penicillin (100 U/ml).
(§3) The peptides were dissolved in distilled water, and then sterilized by passing through filters with pore size 0.2 μm to obtain the stock solutions of 1-2 mg/ml. On day 0, cells were seeded in the wells of 96-well plate in complete culture medium with cell density of 200 thousands of cells in 1 ml. On day 1, serial dilutions of each tested sample were prepared (24 serial dilutions in increments of 2) in triplets in the wells of the 96-well plate. On day 3, all the cultures were infected with a dose of 100 TCID50/ml of encephalomyocarditis virus strain “Columbia SK-Col-SK”. Finally, on day 4, cytopathic effect of the virus was assessed by using Leitz inverted microscope in the presence of different concentrations of the tested peptide or in the cultures without peptide (control).
(§4) Antiviral effect of the drug product was assessed based on minimal concentration thereof protecting 50% of the cells from death caused by encephalomyocarditis virus at a dose of 100 TCID50/ml. Interferon titre (U/ml) was calculated as a value, inverse to the maximal dilution of the drug product, which protected 50% of the cells from death caused by encephalomyocarditis virus at a dose of 100 TCID50/ml.

[2] = test system: encephalomyocarditis virus; assay: Antiviral (interferon-inducing) activity in culture of HELA human cervical carcinoma cell line; type: cell-based; details: 100 LD50 of encephalomyocarditis virus
Description: as §1, §2, §3, §4
(§5) HELA human cervical carcinoma cell line was obtained from Research Institute of Virology named after Ivanovskiy (Moscow). Complete medium for cells culturing, peptides and compositions thereof, as well as assessment method for their antiviral (interferon-inducing) activity were the same as described in the Example 5.

[3] = test system: encephalomyocarditis virus; assay: Antiviral (interferon-inducing) activity in culture of Girardi Heart human epithelial cell line; type: cell-based; details: for Antiviral efficacy (minimal compound concentration protecting 50% of the cells from death) / Titre of induced interferon (inverse to the maximal dilution protecting 50% of the cells): Girardi Heart epithelial cells, 100 LD50 of encephalomyocarditis virus
Description: as §1, §2, §3, §4
as §5, with “The culture of Girardi Heart” for “HELA”, “epithelial” for “cervical carcinoma”

[4] = test system: MAPK/ERK signaling pathway; assay: Activation of MAPK/ERK signaling pathway in BALB/c mouse fibroblasts (immune blotting of phospho-p44/42 MAPK); type: cell-based
Description: Peptide […] (SEQ ID No: 1) was obtained as described in Example 1, BALB/c mouse fibroblast were purchased from American Type Culture Collection and propagated in a complete medium consisting of high glucose DMEM supplemented with 10% fetal calf serum, 1 mM sodium pyruvate, 1:50 MEM non-essential amino acids, 2 mM L-glutamine, 10 μg/ml gentamicin and 50 μM β-mercaptoethanol. Cells were grown in 10 cm culture dishes at 5% CO2 and 37° C. Cell passages were made at the 50-60% confluency. For cell detachment, 0.05% trypsin/EDTA was used with following centrifugation (470×g, 15 min) in 10-fold volume of washing medium containing 10% FCS to quench trypsin. Supernatant was discarded and the cell pellet was suspended in 10 ml of complete culture medium, then cell numbers were counted using hemocytometer before cells were used for experiments.
Fibroblasts were cultured in 8-well culture plates, the examined peptide or cytokine TGF-β1 (positive control) solution, or equivalent volume of culture medium (negative control) were added into respective triplicate cultures. Cells were incubated in presence of the peptide […] SEQ ID No: 1 (10 μg/ml) or TGF-β1, or without any effector compound during 1 or 6 hours at 5% C02 and 37° C. At the time points indicated, cell were harvested, washed twice with PBS and lyzed using the cell extraction buffer in the presence of protease inhibitors during 30 min at 4° C. Extracts were cleared by centrifugation (14,000×g, 10 min, 4° C.). Protein concentration was measured using protein assay reagent (Pierce, 23225). Appropriate dilutions of extracts ([…] protein per a track) were then fractionated in 8% SDS-PAGE and then transferred onto PVDF-membrane (Amersham) for immune blotting. Targeted proteins were detected using antibodies specific to phospho-p44/42 MAPK (Cell Signaling, 4370) and GAPDH (Abcam ab8245). Protein bands were visualized and then measured their intensities using ImageJ soft-ware. Data were expressed as a value (pixels per a band) of ERK1, ERK2 or phospho-ERK1 and phospho-ERK2 normalized to a value of respective GAPDH-bands. Mean values+SD were calculated using the data of 3 independent runs.

[5] = 1 hour after activation, peptide 10 μg/ml, TGF-β1 5 ng/ml, negative control 0.1+0.002
[6] = 1 hour after activation, peptide 10 μg/ml, TGF-β1 5 ng/ml, negative control 0.4+0.01
[7] = 6 hour time point, non-activated cultures 0.1+0.007
[8] = 6 hours after activation, negative control 0.1+0.01

Row | Substance | Antiviral efficacy (minimal compound concentration protecting 50% of the cells from death) [1] [µg/mL] | Titre of induced interferon (inverse to the maximal dilution protecting 50% of the cells) [1] [U/ml] | Antiviral efficacy (minimal compound concentration protecting 50% of the cells from death) [2] [µg/mL] | Titre of induced interferon (inverse to the maximal dilution protecting 50% of the cells) [2] [U/ml] | Antiviral efficacy (minimal compound concentration protecting 50% of the cells from death) [3] [µg/mL] | Titre of induced interferon (inverse to the maximal dilution protecting 50% of the cells) [3] | immunostimulatory activity compared with the activity of HEP-1 peptide ([1]; Table 1, PLC/PRF/5 cells) [times] | immunostimulatory activity compared with the activity of HEP-1 peptide ([3]; Table 3, Girardi Heart cells) | phospho-ERK1 normalized value (band intensity normalized to GAPDH) [4, 5] | phospho-ERK2 normalized value (band intensity normalized to GAPDH) [4, 6] | phospho-ERK2 normalized value (band intensity normalized to GAPDH) [4, 7] | phospho-ERK1 normalized value (band intensity normalized to GAPDH) [4, 8]
1 | NH2_Arg-Glu-Thr-Val-Glu-Arg-Glu-Lys-Glu_COOH (H-RETVEREKE-OH) [HP6-14] | 0.78 | 1280 | 0.49 | 2048 | 0.006 | 163 840 U/ml |  |  |  |  |  | 
2 | NH2_Gly-Glu-Lys-Lys-Arg-Arg-Glu-Thr-Val-Glu-Arg-Glu-Gly-Gly_COOH (H-GEKKRRETVEREGG-OH) [HP-V2] | 0.78 | 1280 | 7.8 | 128 | 0.0015 | 655 360 U/ml | 4 | the same | 0.4+0.02 | 1.3+0.05 | 0.1+0.01 | 0.1+0.006
3 | NH2_Thr-Glu-Lys-Lys-Arg COOH (H-TEKKR-OH) [HP1-5] | 1.6 | 640 | 0.49 | 2048 | 0.0015 | 655 360 U/ml |  |  |  |  |  | 
4 | NH2_Thr-Glu-Lys-Lys-Arg-Arg-Glu-Thr-Val-Glu-Arg-Glu-Lys-Glu_COOH (H-TEKKRRETVEREKE-OH) [HEP-1] | 3.0 | 320 | 3.9 | 256 | 0.0015 | 655 360 U/ml |  |  |  |  |  | 
5 | TGF-β1: cytokine TGF-β1 (positive control) |  |  |  |  |  |  |  |  | 0.5+0.02 | 1.9+0.1 | 0.35+0.02 | 0.3+0.02
